# Assay: Blood glucose depression profile after subcutaneous injection in fasted normal non-diabetic rats
# Assay type: in vivo, Male Sprague-Dawley rats
# Method: Subcutaneous injections of the insulin-dextran were administered using 0.25 ml of a sterilized 1×PBS solution ([…] of equivalent insulin/ml) behind the neck of fasted normal non-diabetic rats (Male Sprague-Dawley, 200-250 g, n=4). Blood samples were collected via tail vein bleeding at −15 and 0 minutes, and at 15, 30, 45, 60, 90, 120, 180, 240, 300 and 360 minutes after injection.
# This example evaluates the in vivo pharmacodynamic profile of subcutaneously administered insulin-glycogen. The insulin-glycogen conjugate was synthesized according to Example 8. The bioactivity of the insulin-glycogen conjugate was evaluated by injecting a 2.5 equivalent U of insulin/kg dose behind the neck of fasted normal non-diabetic rats (Male Sprague-Dawley, 200-250 g, n=4). Blood samples were collected via tail vein bleeding at −15 and 0 minutes, and at 15, 30, 45, 60, 90, 120, 180, 240, 300 and 360 minutes after injection. […] This rapid action and elimination profile is due to the rapid enzymatic digestion of the high MW glycogen polymer chain following subcutaneous injection.
# [1] = 0.25 ml of 20 U of equivalent insulin/ml, FIG. 5
Substance,"glucose lowering as compared to the insulin-dextran conjugates (2.5 equivalent U of insulin/kg, FIG. 6)",time serum glucose levels remain depressed post injection [1],time to reach the glucose nadir (Tnadir) [1]
"insulin-glycogen: comparative conjugate of insulin and oyster glycogen (Type II) made by CNBr coupling, Example 8",lower glucose levels much more rapidly and to a greater extent,,
insulin-dextran: comparative conjugate of recombinant human insulin and dextran (MW 70K) made by CNBr coupling,,at least five,about 3 hours

# From patent US9095623B2, “Terminally-functionalized conjugates and uses thereof” (SmartCells, Inc., priority 2009, dated 2015)
